Consider twelve compounds from US20260274814A1, “THIENYL COMPOUNDS FOR THE TREATMENT OF A CENTRAL NERVOUS SYSTEM DISEASE OR DISORDER” (Coreterra Therapeutics, Inc., priority 2023, published 2026).

Structures can show the parent of a compound that is named as a salt. Where two headings read alike, the source gives them in different places.

For this assay, the system named is mice. Briefly: Neuropharmacological Assay (SmartCube): automated behavioral signature of compound-treated mice compared with a database of reference drug classes. It is filed as in vivo. To be noted: for MED / MED (minimal effective dose) / minimal effective dose: i.p., that dose is shown; for minimal effective dose: Mus musculus, ip. Summed up: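 Compounds in N-methyl-2-pyrrolidone/polyethylene glycol/propylene glycol were given i.p. 15 min before testing, at 3 doses; values shown are for 3.0 mg/kg. Video-captured behaviour was matched by algorithm against reference drug classes, giving a probability per class. MED: lowest dose reaching ≥45% total activity.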

Where [1] appears, read: SmartCube probability class, 3.0 mg/kg dose, i.p. 15 min before the behavioral test.
The mark [2] stands for this setting: SmartCube probability class, 3.0 mg/kg dose, i.p. 15 min before the behavioral test, hydrochloride, 3 mg/kg.
Setting [3] is: dose having 45% or more total activity in SmartCube, if only one dose was tested, hydrochloride.
The mark [4] stands for this setting: probability that activity matches this class of agents, 3.0 mg/kg i.p., 15 min before test.
[5] abbreviates: probability that activity matches this class of agents, 3.0 mg/kg i.p., 15 min before test, hydrochloride, 3 mg/kg.
Setting [6] is: SmartCube class probability, 3.0 mg/kg i.p., 15 min before test.
[7] abbreviates: SmartCube class probability, 3.0 mg/kg i.p., 15 min before test, hydrochloride, 3 mg/kg.
The mark [8] stands for this setting: minimal effective dose: dose having 45% or more total activity in SmartCube, if only one dose tested, hydrochloride.
[9] abbreviates: dose having 45% or more total activity in SmartCube, if only one dose was tested.
Where [10] appears, read: dose having 45% or more total activity in SmartCube, if only one dose was tested, read-out: MED (minimal effective dose).

For the compound `CNC1Cc2scc(C)c2C1` (single isomer, unassigned) [Compound 317, N, 3-dimethyl-5,6-dihydro-4H-cyclopenta[b]thiophen-5-amine hydrochloride], under setting [1], the AD entry was “ND (^ <4%)”, the AG result is “ND (^ <4%)”, the AN result is given as “ND (^ <4%)” and the HL entry was “ND (^ <4%)”. Under setting [1], the MS entry is “ND (^ <4%)”, the PS result is “ND (^ <4%)”, the SH entry is on record as “ND (^ <4%)” and the UK result was “ND (^ <4%)”. Besides, under setting [2], the AP entry is on record as “+ (≥4%)”, the AX result is “+++ (≥49%)” and the CE result was “+ (≥4%)”. For the setting “minimal effective dose: dose having 45% or more total activity in SmartCube, if only one dose was tested”, this compound gave an MED of 3 mpk.

As to `CNC1CCc2c(C)csc2C1` (single isomer, unassigned) [Compound 45, N, 3-dimethyl-4,5,6,7-tetrahydrobenzothiophen-6-amine hydrochloride], the “MED (minimal effective dose)” value under setting [3] is recorded as 0.1 mpk. In addition, under setting [4], the AG result is on record as “ND (^ <4%)”, the AN entry is reported as “ND (^ <4%)”, the AX result is listed as “ND (^ <4%)” and the CE entry is on record as “ND (^ <4%)”. Under setting [4], the HL result is “ND (^ <4%)”, the MS result is “ND (^ <4%)”, the PS result is “ND (^ <4%)” and the SH result was “ND (^ <4%)”. Also, the UK entry under setting [4] was “ND (^ <4%)”. Under setting [5], the AD entry is recorded as “++++ (≥74%)” and the AP result was “+ (≥4%)”.

Turning to `CNC1(C)CCc2sccc2C1` (single isomer, unassigned) [Compound 178, N, 5-dimethyl-6,7-dihydro-4H-benzothiophen-5-amine hydrochloride], under setting [6], the AG result is on record as “ND (^ <4%)”, the AP result was “ND (^ <4%)”, the AX entry is “ND (^ <4%)” and the CE result is “ND (^ <4%)”. For the same compound, under setting [6], the HL result is “ND (^ <4%)”, the MS result is on record as “ND (^ <4%)”, the SH result was “ND (^ <4%)” and the UK entry is on record as “ND (^ <4%)”. Moreover, under setting [7], the AD result is given as “+ (≥4%)”, the AN result is “ND (^ <4%)” and the PS result was “++++ (≥74%)”. Under setting [8], the MED amounted to 1 mpk.

Consider `CNC1CCc2c(F)sc(C)c2C1` (single isomer, unassigned) [Compound 211, 1-fluoro-N, 3-dimethyl-4,5,6,7-tetrahydro-2-benzothiophen-5-amine hydrochloride], for which, under setting [6], the AD entry is reported as “ND (^ <4%)”, the AG result is recorded as “ND (^ <4%)”, the AN entry was “ND (^ <4%)” and the AX result is recorded as “ND (^ <4%)”. Also, under setting [6], the CE result was “ND (^ <4%)”, the HL result is recorded as “ND (^ <4%)”, the MS result was “ND (^ <4%)” and the PS entry was “ND (^ <4%)”. Besides, the SH result under setting [6] is “ND (^ <4%)”. Also, under setting [7], the AP result is given as “++++ (≥74%)” and the UK result is recorded as “ND (^ <4%)”. This compound also displayed an MED under setting [8] below 3 mpk.

Consider `CNC1CCc2c(csc2Cl)C1` (single isomer, unassigned) [Compound 58, 1-chloro-N-methyl-4,5,6,7-tetrahydro-2-benzothiophen-5-amine hydrochloride], for which the “MED (minimal effective dose)” value under setting [9] is listed as 1.0 mpk. Moreover, under setting [4], the AG entry is listed as “ND (^ <4%)”, the AN result was “ND (^ <4%)”, the AX result is on record as “ND (^ <4%)” and the CE result is “ND (^ <4%)”. For the same compound, under setting [4], the HL result is “ND (^ <4%)”, the PS entry is reported as “ND (^ <4%)” and the SH entry is on record as “ND (^ <4%)”. For the same compound, under setting [5], the AD entry is given as “+ (≥4%)”, the AP result is “+++ (≥49%)”, the MS entry is “+ (≥4%)” and the UK result is “ND (^ <4%)”.

For `CCc1sc(CC)c2c1CCC(NC)C2` (single isomer, unassigned) [Compound 117, 1,3-diethyl-N-methyl-4,5,6,7-tetrahydro-2-benzothiophen-5-amine hydrochloride], the minimal effective dose under setting [10] was above 3 mg/kg. Under setting [4], the AD entry is given as “ND (^ <4%)”, the AG result was “ND (^ <4%)”, the AN entry is recorded as “ND (^ <4%)” and the AP entry is on record as “ND (^ <4%)”. In addition, under setting [4], the AX result is recorded as “ND (^ <4%)”, the CE entry is “ND (^ <4%)”, the HL result was “ND (^ <4%)” and the MS entry is reported as “ND (^ <4%)”. Moreover, under setting [4], the PS result is listed as “ND (^ <4%)” and the SH result is reported as “ND (^ <4%)”. Under setting [5], the UK result is listed as “ND (^ <4%)”.

`CNC1COc2csc(C(F)(F)F)c2C1` (single isomer, unassigned) [Compound 258, N-methyl-5-(trifluoromethyl)-3,4-dihydro-2H-thieno[3,4-b]pyran-3-amine hydrochloride]: under “minimal effective dose: dose having 45% or more total activity in SmartCube, if only one dose tested, read-out: MED”, the minimal effective dose was above 3 mg/kg. Further, under setting [6], the AD result is “ND (^ <4%)”, the AG entry was “ND (^ <4%)”, the AN entry was “ND (^ <4%)” and the AP entry is reported as “ND (^ <4%)”. Under setting [6], the AX entry is given as “ND (^ <4%)”, the CE result is recorded as “ND (^ <4%)”, the HL entry is “ND (^ <4%)” and the MS entry is on record as “ND (^ <4%)”. Also, under setting [6], the PS result is reported as “ND (^ <4%)” and the SH result is reported as “ND (^ <4%)”. In addition, the UK result under setting [7] is “+ (≥4%)”.

With `Cl.c1cc2c(s1)CC(N1CCOCC1)CC2` (single isomer, unassigned) [Compound 23, 4-(4,5,6,7-tetrahydrobenzo[b]thiophen-6-yl)morpholine hydrochloride], under setting [9], the “MED (minimal effective dose)” value was above 10 mpk. Under setting [4], the AD entry was “ND (^ <4%)”, the AG entry is recorded as “ND (^ <4%)”, the AN entry was “ND (^ <4%)” and the AP entry is reported as “ND (^ <4%)”. Besides, under setting [4], the AX entry is listed as “ND (^ <4%)”, the CE result was “ND (^ <4%)”, the HL result was “ND (^ <4%)” and the MS result is “ND (^ <4%)”. Also, under setting [4], the PS result is on record as “ND (^ <4%)” and the SH entry is “ND (^ <4%)”. For the same compound, under setting [5], the UK result is recorded as “ND (^ <4%)”.

Take `CNC1CCc2cc(C)sc2C1` (single isomer, unassigned) [Compound 28, N, 2-dimethyl-4,5,6,7-tetrahydrobenzothiophen-6-amine hydrochloride]: the “MED (minimal effective dose)” value under setting [3] came to 3.0 mpk. Under setting [4], the AG result is on record as “ND (^ <4%)”, the AN entry is “ND (^ <4%)”, the AX entry is “++ (≥24%)” and the CE entry is “ND (^ <4%)”. Besides, under setting [4], the HL result is listed as “ND (^ <4%)”, the MS result was “ND (^ <4%)”, the PS entry is reported as “ND (^ <4%)” and the SH entry was “ND (^ <4%)”. In addition, under setting [5], the AD entry is recorded as “+++ (≥49%)”, the AP result is recorded as “ND (^ <4%)” and the UK result was “ND (^ <4%)”.

For `CNC1CCCc2sccc2C1` (stereo not drawn) [Compound 326, N-methyl-5,6,7,8-tetrahydro-4H-cyclohepta[b]thiophen-5-amine hydrochloride], under “minimal effective dose: dose having 45% or more total activity in SmartCube, if only one dose was tested, read-out: MED”, the minimal effective dose came to 3 mg/kg. Further, under setting [1], the AD entry was “ND (^ <4%)”, the AG result is “ND (^ <4%)”, the AN result is reported as “ND (^ <4%)” and the AP result was “ND (^ <4%)”. Also, under setting [1], the AX result is recorded as “++ (≥24%)”, the CE result is “ND (^ <4%)”, the HL result is “ND (^ <4%)” and the MS result is “ND (^ <4%)”. For the same compound, under setting [1], the PS entry is reported as “ND (^ <4%)”, the SH result is reported as “ND (^ <4%)” and the UK entry is reported as “++ (≥24%)”.

Regarding `CNC1CCc2cc(C#N)sc2C1` (single isomer, unassigned) [Compound 36, 6-(methylamino)-4,5,6,7-tetrahydrobenzothiophene-2-carbonitrile hydrochloride], under setting [10], the minimal effective dose was determined as 3 mg/kg. Also, under setting [4], the AD result is “ND (^ <4%)”, the AG result is “ND (^ <4%)”, the AN entry is listed as “ND (^ <4%)” and the AX entry is “ND (^ <4%)”. Also, under setting [4], the CE result was “ND (^ <4%)”, the HL result is “ND (^ <4%)”, the MS result is recorded as “ND (^ <4%)” and the PS entry was “ND (^ <4%)”. Further, the SH result under setting [4] was “ND (^ <4%)”. In addition, under setting [5], the AP entry is reported as “+++ (≥49%)” and the UK result is “++ (≥24%)”.

Consider `CNC1CCc2csc(C3CC3)c2C1` (stereo not drawn) [Compound 95, 3-cyclopropyl-N-methyl-4,5,6,7-tetrahydro-2-benzothiophen-5-amine hydrochloride], for which the minimal effective dose under setting [10] worked out at 1 mg/kg. Further, under setting [4], the AD result was “+++ (≥49%)”, the AG result is recorded as “ND (^ <4%)”, the AN result is listed as “ND (^ <4%)” and the AP entry is given as “++ (≥24%)”. Under setting [4], the AX entry is “ND (^ <4%)”, the CE entry is “ND (^ <4%)”, the HL entry is “ND (^ <4%)” and the MS result was “ND (^ <4%)”. Under setting [4], the PS entry is “ND (^ <4%)”, the SH result is “ND (^ <4%)” and the UK entry was “ND (^ <4%)”.
